Holding throughout (assay type): cell-based
Test [1] has as its system a variety of fungi. Put plainly: Broth microdilution MIC/MID 50 against fungi. The settings on record: antifungal concentration. How it is done:
The clinical and laboratory standards institute Broth Microdilution Methodology was employed, however, the growth medium used was an “RPMI” medium. Table 22c uses a format similar to that used for Table 22a, however, the test solutions were tested against a variety of fungi.
(In general: Dilution methods test growth across graded concentrations, often in twofold steps.)

Test [2] concerns Gram-Positive and Gram Negative bacteria.
Test [3] deals with Trypanosoma b. rhodesiense STIB 900. Kind of test: Alamar Blue assay against Human African Trypanosomiasis parasites. How it is done: Minimum Essential Medium (50 μl) supplemented according to Baltz et al. (1985) with 2-mercaptoethanol and 15% heat-inactivated horse serum was added to each well of a 96-well microtiter plate.
Serial drug dilutions were prepared covering a range from 90 to 0.123 μg/ml.
Then 10^4 bloodstream forms of Trypanosoma b. rhodesiense STIB 900 in 50 μl were added to each well and the plate incubated at 37° C. under a 5% CO2 atmosphere for 72 hours.
10 μl of Alamar Blue (12.5 mg resazurin dissolved in 100 mL distilled water) were then added to each well and incubation continued for a further 2-4 hours.
Then the plates were read with a Spectramax Gemini XS microplate fluorometer (Molecular Devices Cooperation, Sunnyvale, Calif., USA) using an excitation wave length of 536 nm and an emission wave length of 588 nm.
Data were analysed using the software Softmax Pro (Molecular Devices Cooperation, Sunnyvale, Calif., USA). Decrease of fluorescence (=inhibition) was expressed as percentage of the fluorescence of control cultures and plotted against the drug concentrations.
From the sigmoidal inhibition curves the IC50 values were calculated.
For orientation: The colour change of resazurin is a common sign of viable cells or microbes.

Where “and” joins values, the source holds several entries; their conditions need not be identical. Equal entries are not always repeated. Where two headings read alike, the source gives them in different places.

As for `C[C@@H]1[C@H](O)[C@@H](C)/C=C/C=C/C=C/C=C/C=C/C=C/C=C/[C@H](O[C@@H]2O[C@H](C)[C@@H](O)[C@H](N)[C@@H]2O)C[C@@H]2O[C@](O)(C[C@@H](O)C[C@@H](O)[C@H](O)CC[C@@H](O)C[C@@H](O)CC(=O)O[C@H]1C)C[C@H](O)[C@H]2C(=O)O` [Amphotericin B], the MID/MIC in test [1] (ATCC 22019 Candida parapsilosis - 24 hrs) was 0.5 µg/mL; in test [1] (ATCC 22019 Candida parapsilosis - 48 hrs §§ (24 hour read)) it was 1 µg/mL; in test [1] (NCPF 118 Trichophyton rubrum 48 hrs §§ (24 hour read)) it was 0.5 µg/mL and 1 µg/mL; in test [1] (NCPF 175 Trychophyton interdigitale 72 hrs §§ (24 hour read)), 2 µg/mL; in test [1] (NCPF 177 *Microsporum canis - 72 hrs }} (required 72 hours incubation)), 0.12 µg/mL; in test [1] (NCPF 224 Trichophyton mentagrophytes - 48 hrs §§ (24 hour read)) it was 2 µg/mL. The MID/MIC in test [1] (NCPF 436 *Microsporum audounii - 72 hrs }} (required 72 hours incubation)) turned out to be 0.5 µg/mL; in test [1] (NCPF 988 *Microsporum ferrugineum - 72 hrs }} (required 72 hours incubation)), 1 µg/mL; in test [1] (NCPF 2140 Aspergiflus fumigatus - 48 hrs §§ (24 hour read)), 2 µg/mL; in test [1] (NCPF 2175 Aspergillus flavus - 48 hrs §§ (24 hour read)), 4 µg/mL; in test [1] (NCPF 2634 Rhizopus oligosporus - 24 hrs), 0.5 µg/mL; in test [1] (NCPF 2715 Penicillium chrysogenum 48 hrs §§ (24 hour read)), 2 µg/mL. The MID/MIC in test [1] (NCPF 2722 Fusarium oxysporum - 48 hrs) amounted to 1 µg/mL; in test [1] (NCPF 2743 Mucor circinelloides - 48 hrs) it was 1 µg/mL; in test [1] (NCPF 3309 Candida glabrata - 24 hrs), 0.5 µg/mL; in test [1] (NCPF 3309 Candida glabrata - 48 hrs) it was 1 µg/mL; in test [1] (NCPF 3516 Candida lusitaniae - 24 hrs) it was 0.5 µg/mL; in test [1] (NCPF 3516 Candida lusitaniae - 48 hrs §§ (24 hour read)) it was 1 µg/mL. Moreover, the MID/MIC in test [1] (NCPF 3853 Trichophyton cutaneum 48 hrs §§ (24 hour read)) was found to be 0.5 µg/mL; in test [1] (NCPF 5011 Epidermophyton floccosum - 48 hrs), 0.25 µg/mL; in test [1] (NCPF 7075 *Sporothrix schenkii - 72 hrs (required 72 hours incubation)), 1 µg/mL; in test [1] (NCPF 7147 Alternaria altemata - 48 hrs §§ (24 hour read)), 1 µg/mL; in test [1] (NIH 2624 Aspergillus terreus - 48 hrs §§ (24 hour read)) it was 2 µg/mL.
`CCC[C@@H]1C[C@@H](C(=O)N[C@@H]([C@H]2O[C@H](SC)[C@H](O)[C@@H](O)[C@H]2O)[C@H](C)Cl)N(C)C1` [Clindamycin]: the “MID/MIC (amount of antibiotic)” value in test [2] was at most 0.06 µg/mL; in test [2] (CD01 Clostridium difficile, Brucella broth with 5% LHB, 1 μg/mL Vit K, 1 μg/mL Haemin), 4 µg/mL; in test [2] (CD02 Clostridium difficile, Brucella broth with 5% LHB, 1 μg/mL Vit K, 1 μg/mL Haemin), 2 µg/mL; in test [2] (CD03 Clostridium difficile, Brucella broth with 5% LHB, 1 μg/mL Vit K, 1 μg/mL Haemin), 2 µg/mL and 1 µg/mL; in test [2] (CD04 Clostridium difficile, Brucella broth with 5% LHB, 1 μg/mL Vit K, 1 μg/mL Haemin) it was 1 µg/mL; in test [2] (CD05 Clostridium difficile, Brucella broth with 5% LHB, 1 μg/mL Vit K, 1 μg/mL Haemin) it was 1 µg/mL. Besides, the “MID/MIC (amount of antibiotic)” value in test [2] (CD06 Clostridium difficile, Brucella broth with 5% LHB, 1 μg/mL Vit K, 1 μg/mL Haemin) is 1 µg/mL; in test [2] (CD07 Clostridium difficile, Brucella broth with 5% LHB, 1 μg/mL Vit K, 1 μg/mL Haemin), 1 µg/mL; in test [2] (CD08 Clostridium difficile, Brucella broth with 5% LHB, 1 μg/mL Vit K, 1 μg/mL Haemin) it was 0.5 µg/mL and 1 µg/mL; in test [2] (CD09 Clostridium difficile, Brucella broth with 5% LHB, 1 μg/mL Vit K, 1 μg/mL Haemin) it was 1 µg/mL and 2 µg/mL; in test [2] (GN10 Pseudomonas aeruginosa ATCC27853, antibiotic-susceptible type strain) it was 1 µg/mL; in test [2] (GN32 Acinetobacter baumanii, multi-drug resistant clinical isolate) it was 50.06 µg/mL. In addition, the “MID/MIC (amount of antibiotic)” value in test [2] (P8119035 Citrobacter freundii, resistant clinical isolate) turned out to be 4 µg/mL.
As for `Nc1nc(N)nc(Nc2ccc([As]3SCC(CO)S3)cc2)n1` (stereo not shown) [Melarsoprol], the IC50 in test [3] (72 h, read-out: T.b. rhod. IC/50 Trial I) was determined as 0.003 µg/mL; in test [3] (72 h, read-out: T.b. rhod. IC/50 Trial III), 0.002 µg/mL; in test [3] (72 h, read-out: T.b. rhod. IC/50 Trial V), 0.005 µg/mL; in test [3] (read-out: T.b. rhod. IC/50 Avg less 1 ng/ml) it was 0.00333 µg/mL.

For the origin of these results see US10441608B2, “Continuous methods for treating liquids and manufacturing certain constituents (e.g., nanoparticles) in liquids, apparatuses and nanoparticles and nanoparticle/liquid solution(s) resulting therefrom” (Clene Nanomedicine, Inc., priority 2009, dated 2019).
